In ChEMBL document CHEMBL3886494, “2′-cyano substituted nucleoside derivatives and methods of use thereof for the treatment of viral diseases” (2016) one finds IC50 data, which are given here for seven compounds.

As usually defined, the IC50 is the concentration at which inhibition is half-maximal.

Structures are written as SMILES. A value given as a limit tells only on which side of the number the result lay.

The target in the test is Genome polyprotein (Hepatitis C virus genotype 1b (isolate BK) (HCV), UniProt P26663). The test is described as follows: Inhibition Assay: To measure inhibition of the enzymatic activity of the HCV NS5B RNA-dependent RNA polymerase by the nucleoside triphosphate compounds of the present invention, a radiolabeled nucleotide incorporation assay was used. This assay is a modified version of the assay described in International Publication No. WO2002/057287. Briefly, 50 uL reactions containing 20 mM HEPES (pH 7.3); 7.5 mM DTT; 20 units/ml RNasIN; 1 uM each of ATP, GTP, UTP and CTP; 20 uCi/mL [33P]-CTP; 10 mM MgCl; 60 mM NaCl; 100 ug/ml BSA; 0.021 uM DCoH heteropolymer RNA template; and 5 nM NS5B (1b-BKΔ55) enzyme were incubated at room temperature for 1 hour. The assay was then terminated by the addition of 500 mM EDTA (50 uL). The reaction mixture was transferred to a Millipore DE81 filter plate and the incorporation of labeled CTP is determined using Packard TopCount. Compound IC50 values can then be calculated from experiments with 10 serial 3-fold dilutions of the inhibitor in duplicate.
Chain of Genome polyprotein (P26663 2420-3010 limits assumed): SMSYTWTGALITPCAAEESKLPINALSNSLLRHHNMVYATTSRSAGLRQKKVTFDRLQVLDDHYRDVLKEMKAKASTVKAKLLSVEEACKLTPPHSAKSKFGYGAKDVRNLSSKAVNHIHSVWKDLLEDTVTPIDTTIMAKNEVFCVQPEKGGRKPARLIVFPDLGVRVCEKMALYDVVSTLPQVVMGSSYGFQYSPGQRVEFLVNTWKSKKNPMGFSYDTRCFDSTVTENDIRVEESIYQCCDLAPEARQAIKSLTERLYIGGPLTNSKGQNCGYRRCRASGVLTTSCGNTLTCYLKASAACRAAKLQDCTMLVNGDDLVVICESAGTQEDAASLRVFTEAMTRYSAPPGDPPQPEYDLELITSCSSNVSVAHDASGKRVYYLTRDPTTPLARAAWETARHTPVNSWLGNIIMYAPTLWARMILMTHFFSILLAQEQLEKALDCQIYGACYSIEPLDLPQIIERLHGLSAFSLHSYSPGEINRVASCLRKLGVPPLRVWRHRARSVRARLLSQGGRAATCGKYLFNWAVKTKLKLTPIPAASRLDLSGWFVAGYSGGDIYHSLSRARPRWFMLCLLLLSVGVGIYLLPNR
In the case of `C[C@@]1(C#N)[C@@H](c2cnc3c(N)ncnn23)O[C@@H](COP(=O)(O)OP(=O)(O)OP(=O)(O)O)[C@@H]1O`, the IC50 was 50 nM.
Take `C[C@]1(C#N)[C@H](O)[C@H](COP(=O)(O)OP(=O)(O)OP(=O)(O)O)O[C@]1(C#N)c1ccc2c(N)ncnn12`: the IC50 was 1200 nM.
In the case of `CC1(C#N)[C@H](O)[C@@H](COP(=O)(O)OP(=O)(O)OP(=O)(O)O)O[C@@]1(C#N)c1cnc2c(N)ncnn12` (some centres not stated), the IC50 is 87000 nM.
In the case of `C[C@@]1(C#N)[C@H](O)[C@@H](COP(=O)(O)OP(=O)(O)OP(=O)(O)O)O[C@H]1c1ccc2c(N)ncnn12`, the half-inhibitory concentration (IC50) was 3 nM.
On to `CO[C@]1(c2ccc3c(N)ncnn23)O[C@@H](COP(=O)(O)OP(=O)(O)OP(=O)(O)O)[C@H](O)[C@]1(C)C#N`, for which the IC50 was 87 nM.
As for `CC1(C#N)[C@@H](O)[C@H](COP(=O)(O)OP(=O)(O)OP(=O)(O)O)O[C@]1(C#N)c1cnc2c(=O)[nH]cnn12` (some centres not stated), the IC50 is more than 200000 nM.
For `CO[C@]1(c2cnc3c(N)ncnn23)O[C@@H](COP(=O)(O)OP(=O)(O)OP(=O)(O)O)[C@H](O)C1(C)C#N` (some centres not stated), the IC50 was 3800 nM.
